Key:
[1] = target: T1, human orexin-1 receptor (hOX1R) (Homo sapiens, UniProt O43613); assay: FLIPR Ca2+ Flux Assay, CHO cells expressing hOX1R; type: cell-based; conditions: agonist 70 pM Ala-6,12 orexin-A
T1 construct: expressed in transfected cells; host or cells: Chinese hamster ovary (CHO) cells, grown under G418 selection
T1 sequence (O43613 1-425): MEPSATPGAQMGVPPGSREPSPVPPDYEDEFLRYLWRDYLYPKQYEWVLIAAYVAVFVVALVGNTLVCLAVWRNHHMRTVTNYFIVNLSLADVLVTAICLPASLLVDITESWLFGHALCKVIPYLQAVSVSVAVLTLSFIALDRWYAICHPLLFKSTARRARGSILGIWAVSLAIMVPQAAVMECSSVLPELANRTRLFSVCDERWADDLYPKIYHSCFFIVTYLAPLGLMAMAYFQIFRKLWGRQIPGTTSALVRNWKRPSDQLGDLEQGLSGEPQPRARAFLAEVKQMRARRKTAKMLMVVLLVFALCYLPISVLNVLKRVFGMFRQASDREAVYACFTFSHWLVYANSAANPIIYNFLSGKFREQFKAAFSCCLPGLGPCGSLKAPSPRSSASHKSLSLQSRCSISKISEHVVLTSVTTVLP

[2] = target: T2, human orexin-2 receptor (hOX2R) (Homo sapiens, UniProt O43614); assay: FLIPR Ca2+ Flux Assay, CHO cells expressing hOX2R; type: cell-based; conditions: agonist 70 pM Ala-6,12 orexin-A
T2 construct: expressed in transfected cells; host or cells: Chinese hamster ovary (CHO) cells, grown under G418 selection
T2 sequence (O43614 1-444): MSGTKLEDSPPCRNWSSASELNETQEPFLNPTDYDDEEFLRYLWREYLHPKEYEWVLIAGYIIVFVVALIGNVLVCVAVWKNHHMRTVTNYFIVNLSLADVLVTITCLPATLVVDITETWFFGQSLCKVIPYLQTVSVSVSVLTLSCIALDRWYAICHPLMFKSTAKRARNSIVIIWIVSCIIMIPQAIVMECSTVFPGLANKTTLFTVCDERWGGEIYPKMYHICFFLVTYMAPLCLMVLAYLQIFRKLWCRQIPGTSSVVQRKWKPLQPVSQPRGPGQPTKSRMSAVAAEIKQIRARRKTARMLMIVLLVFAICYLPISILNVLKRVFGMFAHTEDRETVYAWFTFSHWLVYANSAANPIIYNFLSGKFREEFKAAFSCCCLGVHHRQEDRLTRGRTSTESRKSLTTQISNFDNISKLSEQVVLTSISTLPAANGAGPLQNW

`Cc1ccc(CO)c(O[C@@H]2CC[C@@H](C)N(C(=O)c3ccccc3-n3nccn3)C2)n1` [Example 45, (6-Methyl-2-{[(3R,6R)-6-methyl-1-{[2-(2H-1,2,3-triazol-2-yl)phenyl]carbonyl}piperidin-3-yl]oxy}pyridin-3-yl)methanol] showed an IC50 [1] of 95 nM and an IC50 [2] of 29 nM.

Compound `COc1ccnc(O[C@@H]2CC[C@@H](C)N(C(=O)c3ccccc3-n3nccn3)C2)c1CO` [Example 46, (4-Methoxy-2-{[(3R,6R)-6-methyl-1-{[2-(2H-1,2,3-triazol-2-yl)phenyl]carbonyl}piperidin-3-yl]oxy}pyridin-3-yl)methanol] has an IC50 [1] of 1170 nM and an IC50 [2] of 34 nM.

`COc1ccnc(O[C@@H]2CC[C@@H](C)N(C(=O)c3cccc(F)c3-n3nccn3)C2)c1CO` [Example 47, (3-Fluoro-2-(2H-1,2,3-triazol-2-yl)phenyl)((2R,5R)-5-((3-(hydroxymethyl)-4-methoxypyridin-2-yl)oxy)-2-methylpiperidin-1-yl)methanone] was tested, and the IC50 [1] was 1990 nM and the IC50 [2] was 81 nM.

Compound `C[C@@H]1CC[C@@H](Oc2ncccc2C(C)(C)O)CN1C(=O)c1ccccc1-n1ncnn1` [Example 48, 2-(2-{[(3R,6R)-6-Methyl-1-{[2-(2H-tetrazol-2-yl)phenyl]carbonyl}piperidin-3-yl]oxy}pyridin-3-yl)propan-2-ol] has an IC50 [1] of 156 nM and an IC50 [2] of 21 nM.

`COc1ccc(C(=O)N2C[C@H](Oc3ncccc3CO)CC[C@H]2C)c(-n2nccn2)n1` [Example 49, (2-{[(3R,6R)-1-{[6-Methoxy-2-(2H-1,2,3-triazol-2-yl)pyridin-3-yl]carbonyl}-6-methylpiperidin-3-yl]oxy}pyridin-3-yl)methanol] was tested, and the IC50 [1] was 10000 nM and the IC50 [2] was 588 nM.

In the case of `C[C@@H]1CC[C@@H](Oc2ncccc2CO)CN1C(=O)c1ccccc1-n1ncnn1` [Example 50, (2-{[(3R,6R)-6-methyl-1-{[2-(2H-tetrazol-2-yl)phenyl]carbonyl}piperidin-3-yl]oxy}pyridin-3-yl)methanol], the IC50 [1] is reported as 1840 nM and the IC50 [2] is reported as 289 nM.

— patent US20160102073A1, “2-HYDROXYMETHYL-SUBSTITUTED OREXIN RECEPTOR ANTAGONISTS” (MERCK SHARP & DOHME CORP., priority 2013, published 2016)
